In patent publication US20190350236A1, “METHOD OF PROCESSING SHELLFISH AND RESULTING COMPOSITIONS” (SANFORD LIMITED, priority 2016, published 2019):

Experiments:
activated neutrophils = experiment: Inhibition of superoxide production by PMA-activated neutrophils (WST-1 reduction), anti-inflammatory activity; assay type: cell-based; details: Rattus norvegicus, Neutrophil
Experimental: The relative anti-inflammatory properties of the test samples were determined by establishing their abilities to inhibit the activation of neutrophils as measured by the production of superoxide. The efficacy of the test samples was referenced against Aspirin, as well as an un-supplemented control group.
Samples 1, 2 and 3 (actually numbered samples 3, 4 and 5 in the above table) were produced from the same batch of mussels. Each of the above test samples was extracted with ethanol at a ratio of 1:10 (w:v) and the residues were then extracted with distilled water at the same ratio, so that the activity of both the lipid rich or hydrophobic fraction and the hydrophilic or aqueous fraction of each of the test samples could be tested. The experimental procedure for determining the effects of the test samples on inflammation was based on the methods described in Tan, A S and Berridge, MV (2000). Superoxide produced by activated neutrophils efficiently reduces the tetrazolium salt, WST-1 to produce a soluble formazan: a simple colorimetric assay for measuring respiratory burst activation and for screening of anti-inflammatory agents. J Immunol. Meth. 238: 59-68. Neutrophils were harvested from rat whole blood and activated with phorbol 12-myristate 13-acetate (PMA). The activated neutrophils were then incubated and cultured in the presence of each of the test samples and the controls. The reduction of the WST-1 dye was measured to determine the products of superoxide. The control group was set at 100% activity (0% inhibition) and the inhibition of all samples were compared to this reference.
The ethanol and water extracts (lipid rich and hydrophilic fractions) from each of the test samples were tested at 400 μg/ml for their anti-inflammatory activity based on the inhibition of superoxide by activated neutrophils. The yields of each extraction were used along with the activity of each to obtain an estimate for the total activity within each of the test samples for the two fractions.

[1] = DPPH scavenging method (antioxidant activity); details: reference value used for FIG. 8
Experimental: The antioxidant activity of each of the samples was tested using the DPPH scavenging method (i.e. by using the stable free radical 2,2-Diphenyl-1-(2,4,6-trinitrophenyl) hydrazyl as a substrate). Whilst the DPPH method is not a direct anti-inflammatory assay, antioxidant activity has been an indication of anti-inflammatory activity in many study cases. The DPPH solution was prepared […] and kept in the freezer in the dark before use. The positive control was ascorbic acid prepared as 0.1 mg/ml in a buffer containing citric acid and NaHPO4 (pH 5). Equal amounts of sample solution and DPPH solution were added together, and the assay tube or plate was incubated for 30 minutes in the dark, followed by absorbance measurement at 517 nm on a spectrophotometer. In the blank control experiment of each sample, DPPH was replaced with ethanol. In the DPPH blank control experiment, the sample was replaced with the media (water or solvent) the sample was prepared in.
The scavenging activity (DPPH inhibition %) is calculated by percentage of the absorbance from the sample versus the DPPH only:
All samples were tested at a concentration of 10 mg/ml.

| IC50 of Vitamin E equivalent [1] [mg/L] | Molecule | IC50 (activated neutrophils; reference value used for FIG. 7, read-out: IC50 of aspirin equivalent) [mg/L] | inhibition at 100 µg/mL (activated neutrophils; reference, 100 μg/ml) [%] | inhibition at 200 µg/mL (activated neutrophils; reference, 200 μg/ml) [%] | inhibition at 400 µg/mL (activated neutrophils; reference, 400 μg/ml) [%] |
| --- | --- | --- | --- | --- | --- |
| – | CC(=O)Oc1ccccc1C(=O)O [Aspirin] | 400 | 16.5 | 48.1 | 50.2 |
| 9.26 | Vitamin E | – | – | – | – |
